Measurements from publication PMC11164105, “Exploring of N-phthalimide-linked 1,2,3-triazole analogues with promising -anti-SARS-CoV-2 activity: synthesis, biological screening, and molecular modelling studies” (Journal of Enzyme Inhibition and Medicinal Chemistry, 2024).
Read-outs that look alike come from different tables or passages of the source.

Columns and labels:
[1] = biological target: T1, SARS-CoV-2 Mpro (Severe acute respiratory syndrome coronavirus 2, UniProt P0DTD1); assay: SARS-CoV-2 Mpro inhibition assay (BPS Bioscience, FRET peptide); type: biochemical
T1 construct: purchased BPS Bioscience

[2] = system: SARS-CoV-2 isolate EGY/WAT-2 VACCERA; assay: microbe, parasite or virus in culture; type: cell-based; conditions: for inhibition at 10 µM: Severe acute respiratory syndrome coronavirus 2, Vero C1008, 10 uM; for (API) Antiviral potency index: ratio of the inhibition % of the tested compound to that of Remdesivir at 10 μM, 1 = identical effect
[3] = system: main protease Mpro; design: method as in PMID 36986562; conditions: read-out: IC50 of main protease Mpro inhibition; cited from earlier work
[4] = system: SARS-CoV-2; design: method as in PMID 36986562; conditions: 10 µM, Vero 6 cells; cited from earlier work
[5] = system: COVID-19; design: method as in PMID 34914868; conditions: adult patients with mild-to-moderate COVID-19, not hospitalized, phase-3; cited from earlier work
[6] = system: SARS-CoV-2; design: method as in PMID 34750163; conditions: ritonavir and Nirmatrelvir used in conjunction; cited from earlier work
[7] = system: Vero E6 cells; assay: Cytotoxicity evaluation using MTT viability assay; conditions: Vero E6 cytotoxicity IC50 compared with the antiviral activity maximum concentration (10 mM printed in footnote, 10 uM in text)
[8] = in vitro enzyme assay, read-out: IC50 against SARS-CoV-2 Mpro
[9] = Severe acute respiratory syndrome coronavirus 2, Vero C1008, 1 uM, infected Vero E6 cells, read-out: % of inhibition of SARS CoV-2

Compound | melting point [°C] | (API) Antiviral potency index [2] | further results
O=C(Cn1cc(COc2ccc(/C=N/N3C(=O)c4ccccc4C3=O)cc2)nn1)Nc1ccc(C(=O)O)cc1 [Compound 6a, (E)-4–(2-(4-((4-(((1,3-dioxoisoindolin-2-yl)imino)methyl)phenoxy)methyl)-1H-1,2,3-triazol-1-yl)acetamido)benzoic acid] | 264 to 265 | 0.98 | IC50 [1, 8]: 113 ± 5.75 µM; % of inhibition of SARS CoV-2 ([2]; 10 uM, infected Vero E6 cells): 94.96%; inhibition at 0.01 µM ([2]; Severe acute respiratory syndrome coronavirus 2, Vero C1008, 0.01 uM): ~40%; inhibition at 1 µM [2, 9]: 87.8%; inhibition at 10 µM ([2]; infected Vero E6 cells): 94%; EC50 ([2]; Severe acute respiratory syndrome coronavirus 2, Vero C1008, dose-response at five concentrations starting from 10 uM, read-out: EC50 of virus inhibition): 0.038 µM
O=C(Cn1cc(COc2ccc(/C=N/N3C(=O)c4ccccc4C3=O)cc2)nn1)Nc1ccccc1I [Compound 6b, (E)-2–(4-((4-(((1,3-dioxoisoindolin-2-yl)imino)methyl)phenoxy)methyl)-1H-1,2,3-triazol-1-yl)-N-(2-iodophenyl) acetamide] | 213 to 214 | 0.97 | 
O=C(Cn1cc(COc2ccc(/C=N/N3C(=O)c4ccccc4C3=O)cc2)nn1)Nc1ccc(I)cc1F [Compound 6c, (E)-2–(4-((4-(((1,3-dioxoisoindolin-2-yl)imino)methyl)phenoxy)methyl)-1H-1,2,3-triazol-1-yl)-N-(2-fluoro-4-iodophenyl)acetamide] | 228 to 229 | 0.96 | 
O=C(Cn1cc(COc2ccc(/C=N/N3C(=O)c4ccccc4C3=O)cc2)nn1)Nc1ccc([N+](=O)[O-])cc1 [Compound 6d, (E)-2–(4-((4-(((1,3-dioxoisoindolin-2-yl)imino)methyl)phenoxy)methyl)-1H-1,2,3-triazol-1-yl)-N-(4-nitrophenyl)acetamide] | 242 to 243 | 0.98 | 
O=C(Cn1cc(COc2ccc(/C=N/N3C(=O)c4ccccc4C3=O)cc2)nn1)Nc1ccc(F)cc1 [Compound 6e, (E)-2–(4-((4-(((1,3-dioxoisoindolin-2-yl)imino)methyl)phenoxy)methyl)-1H-1,2,3-triazol-1-yl)-N-(4-fluorophenyl) acetamide] | 219 to 220 | 0.96 | 
Cc1ccc(CNC(=O)Cn2cc(COc3ccc(/C=N/N4C(=O)c5ccccc5C4=O)cc3)nn2)cc1 [Compound 6f, (E)-2–(4-((4-(((1,3-dioxoisoindolin-2-yl)imino)methyl)phenoxy)methyl)-1H-1,2,3-triazol-1-yl)-N-(4-methylbenzyl) acetamide] | 201 to 202 | 0.92 | 
O=C(Cn1cc(COc2ccc(/C=N/N3C(=O)c4ccccc4C3=O)cc2)nn1)NCc1ccc(F)cc1 [Compound 6g, (E)-2–(4-((4-(((1,3-dioxoisoindolin-2-yl)imino)methyl)phenoxy)methyl)-1H-1,2,3-triazol-1-yl)-N-(4-fluorobenzyl) acetamide] |  | 0.97 | IC50 [1, 8]: 90.1 ± 4.59 µM; inhibition at 10 µM ([2]; infected Vero E6 cells): 94%
O=C(Cn1cc(COc2ccc(/C=N/N3C(=O)c4ccccc4C3=O)cc2)nn1)NCc1ccc(Cl)cc1 [Compound 6h, (E)-N-(4-chlorobenzyl)-2–(4-((4-(((1,3-dioxoisoindolin-2-yl)imino)methyl)phenoxy)methyl)-1H-1,2,3-triazol-1-yl)acetamide] | 208 to 209 | 0.95 | 
O=C1c2ccccc2C(=O)N1/N=C/c1ccc(OCc2cn(-c3ccc(F)cc3)nn2)cc1 [Compound 8a, (E)-2-((4-((1–(4-fluorophenyl)-1H-1,2,3-triazol-4-yl)methoxy)benzylidene)amino) isoindoline-1,3-dione] | 238 to 239 | 0.96 | 
O=C(O)c1ccc(-n2cc(COc3ccc(/C=N/N4C(=O)c5ccccc5C4=O)cc3)nn2)cc1 [Compound 8b, (E)-4–(4-((4-(((1,3-dioxoisoindolin-2-yl)imino)methyl)phenoxy)methyl)-1H-1,2,3-triazol-1-yl)benzoic acid] | 287 to 288 | 0.91 | 
O=C1c2ccccc2C(=O)N1/N=C/c1ccc(OCc2cn(-c3ccccc3F)nn2)cc1 [Compound 8e, (E)-2-((4-((1–(2-fluorophenyl)-1H-1,2,3-triazol-4-yl)methoxy)benzylidene)amino)isoindoline-1,3-dione] | 248 to 249 | 0.98 | inhibition at 1 µM [2, 9]: 83.6%
CCOC(=O)c1ccc(-n2cc(COc3ccc(/C=N/N4C(=O)c5ccccc5C4=O)cc3)nn2)cc1 [Compound 8f, ethyl (E)-4–(4-((4-(((1,3-dioxoisoindolin-2-yl)imino)methyl)phenoxy)methyl)-1H-1,2,3-triazol-1-yl)benzoate] | 224 to 225 | 0.91 | 
O=C1c2ccccc2C(=O)N1/N=C/c1ccc(OCc2cn(-c3ccc(Cl)c(Cl)c3)nn2)cc1 [Compound 8g, (E)-2-((4-((1–(3,4-dichlorophenyl)-1H-1,2,3-triazol-4-yl)methoxy)benzylidene)amino)isoindoline-1,3-dione] |  | 0.96 | 
CC(=O)c1ccc(-n2cc(COc3ccc(/C=N/N4C(=O)c5ccccc5C4=O)cc3)nn2)cc1 [Compound 8h, (E)-2-((4-((1–(4-acetylphenyl)-1H-1,2,3-triazol-4-yl)methoxy)benzylidene)amino)isoindoline-1,3-dione] | 275 to 276 | 0.96 | 
CC(=O)OC[C@@H]1O[C@H](n2cc(COc3ccc(/C=N/N4C(=O)c5ccccc5C4=O)cc3)nn2)[C@@H](OC(C)=O)[C@H](OC(C)=O)[C@H]1OC(C)=O [Compound 10a, (2S,3S,4R,5S,6S)-2-(acetoxymethyl)-6–(4-((4-((E)-((1,3-dioxoisoindolin-2-yl)imino)methyl)phenoxy)methyl)-1H-1,2,3-triazol-1-yl)tetrahydro-2H-pyran-3,4,5-triyl triacetate] | 166 to 167 | 0.92 | IC50 [1, 8]: 1090 ± 55.5 µM
CC(=O)OC[C@@H]1O[C@H](n2cc(COc3ccc(/C=N/N4C(=O)c5ccccc5C4=O)cc3)nn2)[C@@H](OC(C)=O)[C@H](OC(C)=O)[C@@H]1OC(C)=O [Compound 10b, (2S,3R,4R,5S,6S)-2-(acetoxymethyl)-6–(4-((4-((E)-((1,3-dioxoisoindolin-2-yl)imino)methyl)phenoxy)methyl)-1H-1,2,3-triazol-1-yl)tetrahydro-2H-pyran-3,4,5-triyl triacetate] |  | 0.90 | 
CC1=NN(c2ccc(Cl)cc2)C(=O)/C1=C\c1ccc(OCc2cn(CC(=O)Nc3ccc(C(=O)O)cc3)nn2)cc1 [Compound 11] |  |  | IC50 [3]: 3.16 ± 1.2 µM; inhibition of SARS-CoV-2 growth [4]: 63.39 ± 0.48%
Cc1cccc(C)c1OCC(=O)N[C@@H](Cc1ccccc1)[C@@H](O)C[C@H](Cc1ccccc1)NC(=O)[C@H](C(C)C)N1CCCNC1=O [Lopinavir, reference compound] |  |  | IC50 [1]: 149 ± 7.48 µM
CC(C)C(=O)OC[C@H]1O[C@@H](n2ccc(NO)nc2=O)[C@H](O)[C@@H]1O [Moldupiravir] |  |  | reduction of the risk of death or hospitalisation [5]: 30%
CC(C)(C)[C@H](NC(=O)C(F)(F)F)C(=O)N1C[C@H]2[C@@H]([C@H]1C(=O)N[C@H](C#N)C[C@@H]1CCNC1=O)C2(C)C [Nirmatrelvir] |  |  | decrease in hospitalisation or mortality [6]: 89%
CCC(CC)COC(=O)[C@H](C)N[P@](=O)(OC[C@H]1O[C@@](C#N)(c2ccc3c(N)ncnn23)[C@H](O)[C@@H]1O)Oc1ccccc1 [Remdesivir, reference compound] |  |  | CT/A Cytotoxicity/activity parameter [7]: 4.31; inhibition at 1 µM ([2]; Severe acute respiratory syndrome coronavirus 2, Vero C1008, read-out: % of inhibition of SARS CoV-2): 92.7%; EC50 ([2]; Severe acute respiratory syndrome coronavirus 2, Vero C1008, read-out: EC50 of virus inhibition): 0.029 µM
(E)-2-((4-((1–(3-fluoro-4-methylphenyl)-1H-1,2,3-triazol-4-yl)methoxy)benzylidene)amino) Isoindoline-1,3-dione [Compound 8d] |  | 0.92 | 
(E)-2-((4-((1–(4-nitrophenyl)-1H-1,2,3-triazol-4-yl)methoxy)benzylidene)amino)isoindoline-1,3-dione [Compound 8c] |  | 0.96 | CT/A Cytotoxicity/activity parameter [7]: 8.62
